According to patent EP0054589B1, “Organic phosphoric acid ester derivatives, a process for preparing the same and insecticidal, miticidal or nematocidal compositions containing the same” (priority 1980, dated 1982):
Where two headings read alike, the source gives them in different places.

Tests used:
carmine mites = experiment: Miticidal effect on carmine mite (sprayed kidney bean seedling); type: in vivo, Tetranychus cinnabarius; details: 500 ppm
Method: An emulsifiable concentrate prepared as described in Formulation Example 1 and diluted to a predetermined concentration was sprayed using a spray-gun on a seedling of a kidney bean placed in a pot of 12 cm in diameter to which plant carmine mites were parasitic. After drying in air, seedlings were kept in a green house, and the number of living insects was recorded on the 7th, 14th, 21st and 28th day from the day of application to determine the control effects. Three pots were used for each treatment. The control effect was assessed by the following formula: [formula] • wherein Σ indicates sum and Cb, Tb, Cai and Tai have the following meanings. • Cb: Number of living mites in non-treated sample before application. • Tb: Number of living mites in treated sample before application. • Cai: Number of living mites in non-treated sample 7th, 14th, 21 st or 28th day from the application. • Tai: Number of living mites in treated sample 7th, 14th, 21st or 28th day from the application.

[1] = tested on: carmine mites resistant to Kelthane; experiment: Miticidal effect on carmine mite resistant to Kelthane (sprayed egg plant seedling); type: in vivo, Tetranychus cinnabarius; details: Table 13, 500 ppm
Method: (§1) (A) An emulsifiable concentrate prepared as described in Formulation Example 1 and diluted to a predetermined concentration was sprayed using a spray-gun on a seedling of an egg plant placed in a pot of 12 cm in diametre to which plant carmine mites resistant to Kelthane were parasitic. After drying in air, seedlings were kept in a green house, and the number of living insects was recorded on the 7th, 14th, 21 st and 28th day from the day of application to determine the control effects. Three pots were used for each treatment. The control effect was assessed by the formula described in TEST EXAMPLE 7 above. Further, phytotoxicity was observed visually on the 7th day after the application.
as §1, with “(B) An” for “(A) An”, “Example 3” for “Example 1”, “in diameter” for “in diametre”, “in Test” for “in TEST”

Apple = experiment: Phytotoxicity on various crops; type: in vivo; parameters: key: Symbol — indicates that no toxicity was observed; details: 500 ppm sprayed; checked visually after 10 days
Method: (§2) An emulsifiable concentrate prepared as described in Formulation Example 2 was diluted with water to a concentration of 500 ppm based on the effective ingredient and sprayed sufficiently using a spray-gun onto various test plants. The plants were kept in a green house. After 10 days from the application phytotoxicity was checked visually. The test was replicated 3 times for each compound.

Rice = experiment: Phytotoxicity on various crops; type: in vivo; parameters: key: Symbol — indicates that no toxicity was observed; details: 500 ppm sprayed; checked visually after 10 days
Method: as §2

Beet = experiment: Phytotoxicity on various crops; type: in vivo; parameters: key: Symbol — indicates that no toxicity was observed; details: 500 ppm sprayed; checked visually after 10 days
Method: as §2

Tomato = experiment: Phytotoxicity on various crops; type: in vivo; parameters: key: Symbol — indicates that no toxicity was observed; details: 500 ppm sprayed; checked visually after 10 days
Method: as §2

Cucumber = experiment: Phytotoxicity on various crops; type: in vivo; parameters: key: Symbol — indicates that no toxicity was observed; details: 500 ppm sprayed; checked visually after 10 days
Method: as §2

Tea = experiment: Phytotoxicity on various crops; type: in vivo; parameters: key: Symbol — indicates that no toxicity was observed; details: 500 ppm sprayed; checked visually after 10 days
Method: as §2

Cabbage = experiment: Phytotoxicity on various crops; type: in vivo; parameters: key: Symbol — indicates that no toxicity was observed; details: 500 ppm sprayed; checked visually after 10 days
Method: as §2

egg plant = experiment: Phytotoxicity on various crops; type: in vivo; parameters: key: Symbol — indicates that no toxicity was observed; details: 500 ppm sprayed; checked visually after 10 days
Method: as §2

Green Pepper = experiment: Phytotoxicity on various crops; type: in vivo; parameters: key: Symbol — indicates that no toxicity was observed; details: 500 ppm sprayed; checked visually after 10 days
Method: as §2

Cotton = experiment: Phytotoxicity on various crops; type: in vivo; parameters: key: Symbol — indicates that no toxicity was observed; details: 500 ppm sprayed; checked visually after 10 days
Method: as §2

Kidney Bean = experiment: Phytotoxicity on various crops; type: in vivo; parameters: key: Symbol — indicates that no toxicity was observed; details: 500 ppm sprayed; checked visually after 10 days
Method: as §2

tobacco cutworm = experiment: Insecticidal effect on tobacco cutworm (cabbage leaf dip); type: in vivo, Prodenia litura; details: after 48 hours, 25°C
Method: (A) An emulsifiable concentrate prepared as described in Formulation Example 1 was diluted with water to a predetermined concentration and then cabbage leaves were dipped into the dilute solution and dried in air and placed in a 60 ml volume cup made of vinyl chloride resin. 3rd-instar larvae of tobacco cutworm were put in each cup and maintained at 25°C. After 48 hours, percent mortality was assessed. The test was replicated 3 times for each compound using 30 insects in each test.
(B) An emulsifiable concentrate prepared as described in Formulation Example 3 was diluted with water to a predetermined concentration and then cabbage leaves were dipped into the dilute solution and dried in air and placed in a 60 ml volume cup made of vinyl chloride resin. 3rd-instar larvae of tobacco cutworm were put in each cup and maintained at 25°C. After 48 hours, percent mortality was assessed. The test was replicated 3 times for each compound using 30 insects in each test.

diamond back moth = experiment: Insecticidal effect on diamond-back moth (cabbage leaf dip); type: in vivo, Plutella xylostella; details: after 72 hours, 25°C
Method: (A) An emulsifiable concentrate prepared as described in Formulation Example 1 was diluted with water to a predetermined concentration and leaves of a cabbage were dipped into the dilute emulsion for 10 seconds followed by drying in air, and charged in a 60 ml volume cup made of vinyl chloride resin. Then, thirty 3rd-instar larvae of diamond back moth were put in each cup, and the cups were kept at 25°C. After 72 hours, percent mortality was assessed and the test was replicated 3 times for each treatment.
(B) An emulsifiable concentrate prepared as described in Formulation Example 4 was diluted with water to a predetermined concentration and leaves of a cabbage were dipped into the dilute emulsion for 10 seconds followed by drying in air, and charged in a 60 ml volume cup made of vinyl chloride resin. Then, thirty 3rd-instar larvae of diamond back moth were put in each cup, and the cups were kept at 25°C. After 72 hours, percent mortality was assessed and the test was replicated 3 times for each treatment.

rice stem borer = experiment: Insecticidal effect on rice stem borer, 3rd-instar larvae (rice seedling dip); type: in vivo, Chilo suppressalis; details: after 72 hours, 25°C
Method: (A) A wettable powder prepared as described in Formulation Example 5 was diluted with water to a predetermined concentration. Rice seedlings were dipped into the dilute solution and placed in a 60 ml volume cup made of vinyl chloride resin, and 10 3rd-instar larvae of rice stem borer were put in each cup. The cups were capped and maintained at 25°C.
(B) A wettable powder prepared as described in Formulation Example 7 was diluted with water to a predetermined concentration. Rice seedlings were dipped into the dilute solution and placed in a 60 ml volume cup made of vinyl chloride resin, and 10 3rd-instar larvae of rice stem borer were put in each cup. The cups were capped and maintained at 25°C.

apple leaf miner = experiment: Insecticidal effect on apple leaf miner (sprayed apple seedling); type: in vivo, Lithocolletis ringoniella; details: for mortality at 500 ppm: Phyllonorycter ringoniella, 336 h
Method: (A) A dilute water suspension of a wettable powder prepared as described in Formulation Example 5 was sufficiently sprayed using a spray-gun on a seedling of an apple tree planted in a bisque flower pot to which plant larvae of apple leaf miner just after hatching were parasitic. Thereafter the pots were placed in a green house. Fourteen days after the spraying, bores made by larvae were broken and percent mortality was assessed for all the leaves of each seedling. Three pots were used for each treatment.
(B) A dilute water suspension of a wettable powder prepared as described in Formulation Example 7 was sufficiently sprayed using a spray-gun on a seedling of an apple tree planted in a bisque flower pot to which plant larvae of apple leaf miner just after hatching were parasitic. Thereafter the pots were placed in a green house. Fourteen days after the spraying, bores made by larvae were broken and percent mortality was assessed for all the leaves of each seedling. Three pots were used for each treatment.

[2] = egg plant seedling, Formulation Example 1
[3] = Table 3, 500 ppm, emulsifiable concentrate as Formulation Example 1
[4] = Table 7, 100 ppm, emulsifiable concentrate as Formulation Example 1
[5] = Table 1, 500 ppm, wettable powder as Formulation Example 5
[6] = Table 4, 100 ppm, emulsifiable concentrate as Formulation Example 3
[7] = Table 8, 100 ppm, emulsifiable concentrate as Formulation Example 4

Compound | Phytotoxicity: Apple (Apple) | Phytotoxicity: Rice (Rice) | Phytotoxicity: Beet (Beet) | Phytotoxicity: Tomato (Tomato) | Phytotoxicity: Cucumber (Cucumber) | Phytotoxicity: Tea (Tea) | Phytotoxicity: Cabbage (Cabbage) | Phytotoxicity: Egg Plant (egg plant) | Phytotoxicity: Green Pepper (Green Pepper) | Phytotoxicity: Cotton (Cotton) | Phytotoxicity: Kidney Bean (Kidney Bean) | Percent Mortality (%) (tobacco cutworm; [3]) | Percent Mortality (%) (rice stem borer; [5]) | also measured
CCCCSP(=O)(OCC)Oc1ccc2c(c1)OC(C)=CC2(C)C (stereo not drawn) [Compound No. 5] | — | — | — | — | — | — | — | — | — | — | — | 100 | 100 | Control Effect (%) (carmine mites): 91.2%; Number of Living Mites after Application 7th Day (carmine mites): 0; Number of Living Mites after Application 14th Day (carmine mites): 0; Number of Living Mites after Application 21st Day (carmine mites): 16; Number of Living Mites after Application 28th Day (carmine mites): 38; Number of Living Mites after Application 7th Day [1, 2]: 0; Number of Living Mites after Application 14th Day [1, 2]: 0; Number of Living Mites after Application 21st Day [1, 2]: 9; Number of Living Mites after Application 28th Day [1, 2]: 29; Control Effect (%) ([1]; from mite counts on 7th, 14th, 21st and 28th day): 97.4%; Percent Mortality (%) (diamond back moth; [4]): 100%
CCCSP(=S)(OCC)Oc1cccc2c1C(C)=CC(C)(C)O2 (stereo not drawn) [Compound No. 26] | — | — | — | — | — | — | — | — | — | — | — |  |  | Percent Mortality (%) (tobacco cutworm; [6]): 100%; Percent Mortality (%) (diamond back moth; [7]): 96.7%; Percent Mortality (%) (rice stem borer; Table 2, 100 ppm, wettable powder as Formulation Example 7): 100%
COP(=O)(OC)OC=C(Cl)Cl [DDVP, dimethyl 2,2-dichlorovinyl dimethyl phosphate, reference compound] |  |  |  |  |  |  |  |  |  |  |  |  |  | Percent Mortality (%) (tobacco cutworm; [6]): 46.7%; Percent Mortality (%) (diamond back moth; [4]): 23.3%; Percent Mortality (%) (diamond back moth; Table 7, 500 ppm): 76.7%; Percent Mortality (%) (diamond back moth; [7]): 6.7%; Percent Mortality (%) (diamond back moth; Table 8, 500 ppm): 83.3%
CCOP(=S)(OCC)Oc1nc(Cl)c(Cl)cc1Cl [Dursban, 0,0-diethyl 0-(3,5,6-trichloro-2-pyridyl)phosphorothioate, reference compound] |  |  |  |  |  |  |  |  |  |  |  |  |  | mortality at 500 ppm (apple leaf miner; read-out: Percent Morality (%)): 29.4%
CCOC(=O)C(SP(=S)(OC)OC)c1ccccc1 (stereo not drawn) [Elsan, S-(α-ethoxy-carbonyl benzyl O,O-dimethyl phosphorodithioate, reference compound] |  |  |  |  |  |  |  |  |  |  |  |  |  | Percent Morality (%) (apple leaf miner; Table 10, 500 ppm, fourteen days after spraying, wettable powder as Formulation Example 5, 20160 min): 13.2%
COc1nn(CSP(=S)(OC)OC)c(=O)s1 [Supracide, O,O-dimethyl-S-[5-methoxy-1,3,4-thiadiazol-2(3H)-onyl(3)-methyl]dithiophosphate, reference compound] |  |  |  |  |  |  |  |  |  |  |  |  |  | mortality at 500 ppm (apple leaf miner; Table 11, 500 ppm, fourteen days after spraying, wettable powder as Formulation Example 7, read-out: Percent Mortality (%)): 72%
CCCSP(=O)(Oc1ccc2c(c1)OC(C)=CC2(C)C)OC(C)CC (stereo not drawn) [compound 15] | — | — | — | — | — | — | — | — | — | — | — | 100 | 100 | 
O-isopropyl-S-isopropyl-O-(2,4,4-trimethyl-1,4-benzopyran-7-yl)phosphorothioate [Compound No. 7] | — | — | — | — | — | — | — | — | — | — | — | 100 | 100 | 
